Measurements published in patent US20060128729A1, “Novel bicyclic heterocyclic compounds, process for their preparation and compositions containing them” (priority 2004, published 2006).
Counter-ions that a name gives are not always drawn.

Columns and labels:
[1] = test system: human aortic smooth muscle cells; assay: Smooth muscle cell proliferation assay (radiolabeled thymidine incorporation or CellTiter AQ); assay type: cell-based; conditions: human aortic SMC; for IC50: 24 h post treatment in serum-containing growth medium, read-out: Activity: concentration giving 50% inhibition of smooth muscle cell proliferation; for inhibition at 1 µM: 24 h post treatment
Experimental: Primary cultures of human aortic smooth muscle cells were obtained from Clonetics. SMC were initially grown in T-75 flasks prior to seeding in 96 well plates. The 96-well plates were seeded with 4000 cells/well. The following day cells were washed with serum free medium and left in serum free media for 24 hours for serum starvation. The next day cells received growth medium containing serum with or without compound. 24 h post treatment cell proliferation was assayed either assessing the incorporation of radiolabeled thymidine to DNA or using a non-radioactive cell proliferation kit from Promega (CellTiter AQ).

[2] = test system: MCP-1 (monocyte chemoattractant protein 1); assay: MCP-1 ELISA on supernatants of stimulated human aortic endothelial cells; assay type: cell-based; conditions: Homo sapiens, Endothelial cell, HAECs treated with TNFα (0.05 ng/ml) or glycated human serum albumin (300 μg/ml) for 18-24 h; read-out: IC50 in MCP-1 enzyme-linked immunosorbent assay
Experimental: For inflammation assays, human aortic endothelial cells (HAECS) in 96 well plates were washed once with treatment medium (basal medium containing 1% FBS). Cells were treated with an inflammatory agent such as TNFα (0.05 ng/ml) or glycated human serum albumin (US Biologicals) as source of advanced glycation end products (AGEs) (300 μg/ml) for 18-24 h in the presence or absence of specified amount of compound. Cell supernatants were collected and used for the estimation of MCP-1 (monocyte chemoattractant protein 1) or IL-6 (interleukin-6) by ELISA. Cell layers were washed and used for determining the levels of vascular cell adhesion molecule-1 (VCAM-1).
MCP-1 ELISA was carried out using Quantikine Human MCP-1 kit as described by the manufacturer (R&D Systems, Inc.). Mouse anti-human MCP-1 was used as the capture antibody and HRP (horse radish peroxidase)-conjugated goat anti-human MCP-1 antibody was used as detection antibody. Culture medium was incubated with the capture antibody (in 96-well plate) for 2 h at room temperature. Wells were washed three times with wash buffer (0.05% Tween-20 in PBS) followed by incubation with detection antibody for 2 h at room temperature. Color development was read at […] in a microplate reader.

Row | IC50 [2] [nM] | melting point [°C] | SMILES | IC50 [1] [nM] | inhibition at 1 µM [1] [%]
1 | 1500 |  | COc1ccc(Nc2nc(-c3ccccc3)nc3c(C)nn(C)c23)cc1Cl [E 13, (3-chloro-4-methoxy-phenyl)-(1,3-dimethyl-5-phenyl-1H-pyrazolo[4,3-d]pyrimidin-7-yl)-amine hydrochloride] | 380 | 
2 | 4000 |  | COc1ccc(Nc2nc(-c3ccccc3)nc3c(C)nn(C)c23)cc1F [E 14, (1,3-dimethyl-5-phenyl-1H-pyrazolo[4,3-d]pyrimidin-7-yl)-(3-fluoro-4-methoxy-phenyl)-amine hydrochloride] | 430 | 
3 |  | 262 | COc1ccc(Nc2nc(-c3ccc(F)cc3)nc3c(C)nn(C)c23)cc1F.Cl [E 16, (3-fluoro-4-methoxy-phenyl)-[5-(4-fluoro-phenyl)-1,3-dimethyl-1H-pyrazolo[4,3-d]pyrimidin-7-yl]-amine hydrochloride] |  | 100
4 |  | > 240 | COc1ccc(Nc2nc(-c3ccc(F)cc3)nc3c(C)nn(C)c23)cc1Cl.Cl [E 17, (3-chloro-4-methoxy-phenyl)-[5-(4-fluoro-phenyl)-1,3-dimethyl-1H-pyrazolo[4,3-d]pyrimidin-7-yl]-amine hydrochloride] |  | 100
5 |  | 230 to 232 | Cc1nn(C)c2c(Nc3ccc4c(c3)OCO4)nc(-c3ccc(F)cc3)nc12.Cl [E 19, benzo[1,3]dioxol-5-yl-[5-(4-fluoro-phenyl)-1,3-dimethyl-1H-pyrazolo[4,3-d]pyrimidin-7-yl]-amine hydrochloride] | 450 | 
6 |  | 236 to 238 | COc1ccc(Nc2nc(-c3cccs3)nc3c(C)nn(C)c23)cc1F.Cl [E 30, (1,3-dimethyl-5-thiophen-2-yl-1H-pyrazolo[4,3-d]pyrimidin-7-yl)-(3-fluoro-4-methoxy-phenyl)-amine hydrochloride] | 1450 | 
7 |  | > 240 | COc1ccc(Nc2nc(-c3cccs3)nc3c(C)nn(C)c23)cc1Cl.Cl [E 32, (3-chloro-4-methoxy-phenyl)-(1,3-dimethyl-5-thiophen-2-yl-1H-pyrazolo[4,3-d]pyrimidin-7-yl)-amine hydrochloride] | 940 | 
8 |  |  | Cc1nn(C)c2c(Nc3ccc4c(c3)OCO4)nc(-c3cccs3)nc12 [E 33, benzo[1,3]dioxol-5-yl-(1,3-dimethyl-5-thiophen-2-yl-1H-pyrazolo[4,3-d]pyrimidin-7-yl)-amine hydrochloride] | 540 | 
9 |  | 230 to 232 | CCCc1nn(C)c2c(Nc3ccc(OC(F)(F)F)cc3)nc(-c3ccc(F)cc3)nc12.Cl [E 37, [5-(4-fluoro-phenyl)-1-methyl-3-propyl-1H-pyrazolo[4,3-d]pyrimidin-7-yl]-(4-trifluoromethoxy-phenyl)-amine hydrochloride] | 500 | 
10 |  | 174 to 176 | Cc1nn(C)c2c(Nc3ccc(OC(F)(F)F)cc3)nc(-c3ccccc3)nc12.Cl [E 38, (1,3-dimethyl-5-phenyl-1H-pyrazolo[4,3-d]pyrimidin-7-yl)-(4-trifluoromethoxy-phenyl)-amine hydrochloride] | 230 | 
11 |  | 250 to 252 | Cc1nn(C)c2c(Nc3ccc(C(F)(F)F)cc3)nc(-c3ccc(F)cc3)nc12.Cl [E 39, [5-(4-fluoro-phenyl)-1,3-dimethyl-1H-pyrazolo[4,3-d]pyrimidin-7-yl]-(4-trifluoromethyl-phenyl)-amine hydrochloride] | 330 | 
12 |  | 254 to 256 | Cc1nn(C)c2c(Nc3ccc(S(=O)(=O)N(C)C)cc3)nc(-c3ccc(F)cc3)nc12.Cl [E 43, 4-[5-(4-fluoro-phenyl)-1,3-dimethyl-1H-pyrazolo[4,3-d]pyrimidin-7-ylamino]-N,N-dimethyl-benzenesulfonamide hydrochloride] | 930 | 
13 |  |  | Cc1nn(C)c2c(Nc3ccc(S(N)(=O)=O)cc3)nc(-c3ccccc3)nc12 [E 44, 4-(1,3-dimethyl-5-phenyl-1H-pyrazolo[4,3-d]pyrimidin-7-ylamino)-benzenesulfonamide hydrochloride] | 2500 | 
14 |  | 210 to 212 | Cc1nn(C)c2c(-c3cccc(S(C)(=O)=O)c3)nc(-c3ccccc3)nc12 [E 67, 7-(3-methanesulfonyl-phenyl)-1,3-dimethyl-5-phenyl-1H-pyrazolo[4,3-d]pyrimidine] |  | 
15 |  | 176 to 178 | Cc1nn(C)c2c(-c3cccc(S(C)(=O)=O)c3)nc(-c3ccc(F)cc3)nc12 [E 68, 5-(4-fluoro-phenyl)-7-(3-methanesulfonyl-phenyl)-1,3-dimethyl-1H-pyrazolo[4,3-d]pyrimidine] |  | 
16 |  | 208 to 210 | CCCc1nn(C)c2c(-c3ccc(S(C)(=O)=O)cc3)nc(-c3ccc(F)cc3)nc12 [E 69, 5-(4-fluoro-phenyl)-7-(4-methanesulfonyl-phenyl)-1-methyl-3-propyl-1H-pyrazolo[4,3-d]pyrimidine] |  | 
17 |  | 156 to 158 | CCCc1nn(C)c2c(C#Cc3ccccc3)nc(-c3ccc(F)cc3)nc12 [E 70, 5-(4-fluoro-phenyl)-1-methyl-7-phenylethynyl-3-propyl-1H-pyrazolo[4,3-d]pyrimidine] |  | 
18 |  | 114 to 116 | CCCc1nn(C)c2c(-n3ccc4ccccc43)nc(-c3ccc(F)cc3)nc12 [E 88, 5-(4-fluoro-phenyl)-7-indol-1-yl-1-methyl-3-propyl-1H-pyrazolo[4,3-d]pyrimidine] |  | 
19 |  | 146 to 148 | CCCc1nn(C)c2c(-n3ccc4cc(Cl)ccc43)nc(-c3ccc(F)cc3)nc12 [E 89] |  | 
20 |  | 141 to 143 | Cc1nn(C)c2c(-n3ccc4ccccc43)nc(-c3ccccc3)nc12 [E 90, 7-indol-1-yl-1,3-dimethyl-5-phenyl-1H-pyrazolo[4,3-d]pyrimidine] |  | 
21 |  | 186 to 188 | Cc1nn(C)c2cc(-c3ccc(F)cc3)nc(-c3cccc(S(C)(=O)=O)c3)c12 [E 93, 6-(4-fluoro-phenyl)-4-(3-methanesulfonyl-phenyl)-1,3-dimethyl-1H-pyrazolo[4,3-c]pyridine] |  | 
22 |  | 92 to 94 | Cc1nn(C)c2cc(-c3ccc(F)cc3)nc(-c3ccc(OC(F)(F)F)cc3)c12 [E 94, 6-(4-fluoro-phenyl)-1,3-dimethyl-4-(4-trifluoromethoxy-phenyl)-1H-pyrazolo[4,3-c]pyridine] |  | 
23 |  | 216 to 218 | Cc1nn(C)c2c(Nc3ccc(S(C)(=O)=O)cc3)nc(-c3ccc(F)cc3)nc12 [E 96, [5-(4-fluoro-phenyl)-1,3-dimethyl-1H-pyrazolo[4,3-d]pyrimidin-7-yl]-(4-methanesulfonyl-phenyl)-amine] | 1370 | 
24 |  | 228 to 230 | Cc1nn(C)c2cc(-c3ccc(F)cc3)nc(-c3ccc(S(C)(=O)=O)cc3)c12 [E 98, 6-(4-fluoro-phenyl)-4-(4-methanesulfonyl-phenyl)-1,3-dimethyl-1H-pyrazolo[4,3-c]pyridine] |  | 
25 |  | 110 to 112 | Cc1nn(C)c2c(F)nc(-c3ccccc3)nc12 [E 99, 7-fluoro-1,3-dimethyl-5-phenyl-1H-pyrazolo[4,3-d]pyrimidine] |  | 
26 | 480 |  | Cc1nn(C)c2cc(-c3ccc(F)cc3)nc(Nc3ccc(S(C)(=O)=O)cc3)c12 [E 100, [6-(4-fluoro-phenyl)-1,3-dimethyl-1H-pyrazolo[4,3-c]pyridin-4-yl]-(4-methanesulfonyl-phenyl)-amine] |  | 
27 |  | 170 to 172 | Cc1nn(C)c2c(-c3ccc(OC(F)(F)F)cc3)nc(-c3ccc(F)cc3)nc12 [E 101, 5-(4-fluoro-phenyl)-1,3-dimethyl-7-(4-trifluoromethoxy-phenyl)-1H-pyrazolo[4,3-d]pyrimidine] |  | 
28 |  | 86 to 88 | Cc1nn(C)c2c(N(C)C)nc(-c3ccccc3)nc12 [E 102, (1,3-dimethyl-5-phenyl-1H-pyrazolo[4,3-d]pyrimidin-7-yl)-dimethyl-amine] |  | 
